Earlier results, collected in publication PMC7179450, “Primary Human Hepatocytes, But not HepG2 or Balb/c 3T3 Cells, Efficiently Metabolize Salinomycin and Are Resistant to Its Cytotoxicity” (Molecules, 2020).
Like-named read-outs stand apart in the source and are kept apart here.

Tested on: all tested cell models
Parameters: method as in PMID 30012479
Details: cited from earlier work

Row | SMILES | cytotoxicity at tested concentrations (tiamulin 1 or 10 µg/mL) | cytotoxicity at tested concentrations (prednisolone 1 µg/mL)
1 | C=C[C@]1(C)C[C@@H](OC(=O)CSCCN(CC)CC)[C@]2(C)[C@H](C)CC[C@]3(CCC(=O)[C@H]32)[C@@H](C)[C@@H]1O [tiamulin] | non-cytotoxic | 
2 | C[C@]12C=CC(=O)C=C1CC[C@@H]1[C@@H]2[C@@H](O)C[C@@]2(C)[C@H]1CC[C@]2(O)C(=O)CO [prednisolone] |  | non-cytotoxic
